In US4766147A, “Novel 5-membered cyclic compounds, process for production thereof, and pharmaceutical use thereof” (priority 1982, dated 1988):
In brackets after ≈: the same amount, converted by molar mass.

How the values were obtained:
[1] = system: L1210 leukemia cells; test: Inhibiting proliferation of L1210 leukemia cell; format: cell-based; conditions: Mus musculus, 96 h, 1×10^5 cells/ml, RPMI with 10% FCS, 37° C., 4 days, trypan blue
Description: Measurement of the Action of Inhibiting Proliferation of L1210 Leukemia Cell
L1210 leukemia cells were added to an RPMI medium containing 10% FCS (fetal calf serum), and the concentration of the cells was adjusted to 1×10^5 cells/ml. Each of the test compounds shown in Table 5 was dissolved in 99.5% ethanol. Prior to use, the final concentration of the ethanol solution was adjusted to less than 0.1%, and it was added to the culture medium. The culture medium was then maintained at 37° C. in a stationary condition for 4 days. After the cultivation, the number of surviving cells was measured by dyeing with trypan blue. As a control, 0.1% ethanol was used. A dose-reaction curve was plotted from the ratios of proliferation against the control, and IC50 was determined.

[2] = Cyto protection: cytotoxicity on stomach epithelial cells; format: cell-based; conditions: stomach epithelial cells; rabbit fetus cells, DME containing 20% FCS; read-out: LD50 Stomach epitherial cells
Description: (§1) Measurement of Cyto Protection
(§2) Stomach epithelial cells taken from a rabbit fetus and aortic smooth muscle cells from a rat were used as normal cells, and L1210 leukemia cells were used as cancer cells. The cytotoxicity of each of the compounds shown in Table 6 on the normal cells was xamined.
(§3) Specifically, the stomach epithelial cells were cultivated in DME containing 20% FCS, and the aortic smooth muscle cells were cultivated in MEM containing 10% CS. Each of the test compounds was dissolved in ethanol and added to the culture broth in an amount of 0.1%. The mixture was filtered through a millipore filter.
(§4) The cytotoxicities LD50) of each of the test compounds on the stomach epithelial cells and the aortic smooth muscle cells were determined. Furthermore, from the LFD50 values, the safety coefficient (LD50 on the normal cells/LD50 on the L1210 cells) was calculated, and the results are also shown in Table 6.

[3] = Cyto protection: cytotoxicity on aortic smooth muscle cells; format: cell-based; conditions: aortic smooth muscle cells; rat cells, MEM containing 10% CS; read-out: LD50 Aortic smooth muscle cells
Description: as §1, §2, §3, §4

[4] = system: Ehrlich ascites carcinoma cells; test: Antitumor effect on Ehrlich ascites carcinoma in ICR mice; format: in vivo; conditions: 30 mg/kg/day i.p. (methyl ester) or 20 mg/kg/day i.p. (12-epimer) for 5 days; for average number of days of survival: from 24 hours after tumor inoculation
Description: Measurement of the Antitumor Effect On Ehrich Ascites Carcinoma
1×10^5 Ehrlich ascites carcinoma cells were intraperitoneally administred to ICR mice. After the lapse of 24 hours, 30 mg/kg/day of 7(E)-7,8-dehydroprostaglandin A1 methyl ester and 20 mg/kg/day of its 12-epimer were each intraperitoneally administered to the mice for 5 days. The periods of survival of these animals were examined.

[5] = system: L1210 leukemia cells; test: Cyto protection: cytotoxicity on L1210 leukemia cells and safety coefficient; format: cell-based, mouse; conditions: for Safety coefficient: LD50 on the normal cells/LD50 on the L1210 cells
Description: as §1, §2
The cytotoxicities LD50) of each of the test compounds on the stomach epithelial cells and the aortic smooth muscle cells were determined.

[6] = Acute toxicity; conditions: mouse, in vivo, iv, four weeks old LR strain male mice (SPF)
Description: Measurement of Acute Toxicity
The acute toxicity of one typical compound of this invention was measured by a customary method using four weeks old LR strain male mice (SPF).

[7] = system: Stomach epithelial cells; test: Cyto protection: cytotoxicity on stomach epithelial cells; format: cell-based; conditions: rabbit fetus cells, DME containing 20% FCS
Description: as §1, §2, §3, §4

[8] = system: aortic smooth muscle cells; test: Cyto protection: cytotoxicity on aortic smooth muscle cells; format: cell-based; conditions: rat cells, MEM containing 10% CS
Description: as §1, §2, §3, §4

[9] = system: mouse leukemia cell L1210; conditions: Biochem. Biophys. Res. Commn., 105, 956 (1982); cited from earlier work

COC(=O)CCCC#CC=C1C(=O)C=CC1C=CC(O)C1CCCC1 (stereo not shown) [4-(3-Hydroxy-3-cyclopentyl-1-propenyl)-5-(6-methoxycarbonyl-2-hexynylidene)-2-cyclopentenone]
IC50 [1]: 0.3 µg/mL (≈ 0.876 µM)

CCCCC[C@H](O)/C=C/[C@@H]1/C(=C\CCCCCC(=O)O)C(=O)C[C@H]1O [7(E)-7,8-Dehydroprostaglandin E1]
IC50 [1]: 0.7 µg/mL (≈ 1.99 µM)

CCCCCCC=CC1C=CC(=O)C1=CCCCCCC(=O)OC (stereo not shown) [4-(1-octenyl)-5-(6-methoxycarbonylhexylidene)-2-cyclopentenone]
IC50 [1]: 0.3 µg/mL (≈ 0.902 µM)

COC12C(COC(N)=O)C3=C(C(=O)C(C)=C(N)C3=O)N1CC1NC12 (stereo not shown) [Mytomycin C, reference compound]
CC50 [2]: 0.01 to 0.02 µg/mL (≈ 0.0299 to 0.0598 µM)
CC50 [3]: 0.01 µg/mL (≈ 0.0299 µM)

COC(=O)CCCC#CC(O)C1C(=O)C=CC1C=CC(O)C1CCCC1 (stereo not shown) [4-(3-hydroxy-3-cyclopentyl-1-propenyl)-5-(1-hydroxy-6-methoxycarbonyl-2-hexyn-1-yl)-2-cyclopentenone]
IC50 [1]: 0.2 µg/mL (≈ 0.555 µM)

CCCCC[C@H](O)/C=C/[C@H]1C=CC(=O)/C1=C/CCCCCC(=O)OC [(7E)-7,8-dehydro PGA1 methyl ester]
increase of life span (ILS %) over the control [4]: 65.8%
ratio of survival for more than 60 days [4]: 2/6
average number of days of survival [4]: 31 ± 1.9 days

CCCCC[C@H](O)/C=C/[C@H]1C=CC(=O)/C1=C/CCCCCC(=O)O [7(E)-7,8-Dehydroprostaglandin A1]
CC50 [2]: 2 to 5 µg/mL (≈ 5.98 to 14.9 µM)
Safety coefficient [5]: 6-25
IC50 ([5]; Mus musculus, L1210, cancer cells, read-out: LD50 L1210 leukemia cells): 0.2 to 0.3 µg/mL (≈ 0.598 to 0.897 µM)
CC50 [3]: 2 to 5 µg/mL (≈ 5.98 to 14.9 µM)
IC50 [1]: 0.4 µg/mL (≈ 1.2 µM)
LD50 [6]: 140 mg/kg

CCCCCC(O)C=CC1C=CC(=O)C1=CCCCCCC(=O)O (stereo not shown) [12-Epimer of 7(E)-7,8-dehydroprostaglandin A1]
LD50 Stomach epitherial cells [7]: 1 to 2 µg/mL
Safety coefficient [5]: 2.5-10
LD50 L1210 leukemia cells ([5]; cancer cells): 0.2 to 0.4 µg/mL
LD50 Aortic smooth muscle cells [8]: 1 to 2 µg/mL

CCCCC[C@H](O)/C=C/[C@@H]1C=CC(=O)/C1=C/CCCCCC(=O)OC [12-epi-(7E)-7,8-dehydro PGA1 methyl ester]
increase of life span (ILS %) over the control [4]: 76.5%
ratio of survival for more than 60 days [4]: 1/6
average number of days of survival [4]: 33.0 ± 9.8 days
IC50 [1]: 0.2 µg/mL (≈ 0.574 µM)

CCCCC[C@H](O)/C=C/[C@H]1C(=O)C[C@H](O)[C@@H]1C/C=C\CCCC(=O)O [PGD2]
IC50 of PGD2 on L1210 cell [9]: 2.4 micrograms/ml

CCCCC1C=CC(=O)C1=CCCCCCC(=O)OC (stereo not shown) [4-Butyl-5-(6-methoxycarbonylhexylidene)-2-cyclopentenone]
IC50 [1]: 0.3 µg/mL (≈ 1.08 µM)
